Values quoted from earlier work as cited in article PMC2831464 (Clinical cancer research : an official journal of the …, 2010).

Settings: cited from earlier work

Compound | lactone AUC ratio | half-life [h] | share in the lactone form in plasma
CC[C@@]1(O)C(=O)OCc2c1cc1n(c2=O)Cc2cc3c(CN(C)C)c(O)ccc3nc2-1 [topotecan] | 30~76% |  | 
CC[C@@]1(O)C(=O)OCc2c1cc1n(c2=O)Cc2c-1nc1ccccc1c2CC[Si](C)(C)C [karenitecin] |  | 15 | 90–95%
CC[C@@]1(O)C(=O)OCc2c1cc1n(c2=O)Cc2c-1nc1ccccc1c2/C=N/OC(C)(C)C [gimatecan] |  | 77 | 90–98%
CCc1c2c(nc3ccc(O)cc13)-c1cc3c(c(=O)n1C2)COC(=O)[C@]3(O)CC [SN-38] | 30~76% |  | 
